From US10980818B2, “Methods for treating ocular inflammatory diseases” (SUN PHARMA GLOBAL FZE, priority 2009, dated 2021)

Test: Release of fluorometholone from the gel in the rabbit eye, measured in the aqueous humor
Format: in vivo
Settings: measured by fluorometholone contained in the aqueous humor; from the gel of the aqueous polymer suspension
Experimental: The viscous gels that result from fluid eyedrops delivered by means of the aqueous suspensions of this invention have residence times in the eye ranging from about 2 to about 12 hours, e.g., from about 3 to about 6 hours. The active ingredients contained in these ophthalmically acceptable vehicles can be released from the gels at rates that depend on such factors as the active ingredient itself and its physical form, the extent of drug loading and the pH of the system, as well as on any drug delivery adjuvants, such as ion exchange resins compatible with the ocular surface, which can also be present.

Release rates in the rabbit eye: in excess of four hours
SMILES: CC(=O)[C@@]1(O)CC[C@H]2[C@@H]3C[C@H](C)C4=CC(=O)C=C[C@]4(C)[C@@]3(F)[C@@H](O)C[C@@]21C [fluorometholone]
